# In ChEMBL document CHEMBL1201862, “PubChem BioAssay data set” (2004):
# Calls of active or inactive are those of the source.
# Legend:
# [1] = NIH-3T3 fibroblast cytotoxicity, dose response, cytotoxicity control, cell-based, fluorescence, Alamar Blue, secondary assay (AID 2327); type: functional;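 further: NIH-3T3 mouse fibroblasts cultured with fluconazole at 8 µg/mL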
# [2] = luciferase reporter signal suppression in cells – H4 neuroglioma cells, luminescence, dose response (AID 1990); type: functional, cell-based
# [3] = alpha-synuclein stem-loop luciferase translation blockers – H4 neuroglioma cells, luminescence, confirmation (AID 1988); type: functional, cell-based
# [4] = fluconazole-exposed Candida albicans growth modulators – fluorescence, retest, confirmation (AID 2467); type: functional, cell-based
# [5] = microbe, parasite or virus in culture; type: functional; settings: Mycobacterium tuberculosis
# Bcl-2-related protein A1 = target: T1, Bcl-2-related protein A1 (Mus musculus, UniProt Q07440); type: functional;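 further: confirmatory dose–response counterscreen on Bfl-1, used to check hits from a UBC13 polyubiquitin inhibitor campaign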
# T1 sequence (Q07440 whole entry): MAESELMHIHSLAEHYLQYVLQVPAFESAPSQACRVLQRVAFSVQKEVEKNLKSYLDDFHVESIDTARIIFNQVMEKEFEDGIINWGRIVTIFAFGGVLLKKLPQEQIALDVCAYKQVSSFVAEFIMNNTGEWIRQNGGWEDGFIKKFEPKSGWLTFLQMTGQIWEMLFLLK
# [6] = target: T2, Short transient receptor potential channel 4 (Mus musculus, UniProt Q9QUQ5); experiment: calcium entry via TRPC4 opening agents – cell-based, HEK293 TRPC4/mu-opioid, Fluo-4 calcium, dose response (AID 434937); type: functional
# T2 sequence (Q9QUQ5 whole entry): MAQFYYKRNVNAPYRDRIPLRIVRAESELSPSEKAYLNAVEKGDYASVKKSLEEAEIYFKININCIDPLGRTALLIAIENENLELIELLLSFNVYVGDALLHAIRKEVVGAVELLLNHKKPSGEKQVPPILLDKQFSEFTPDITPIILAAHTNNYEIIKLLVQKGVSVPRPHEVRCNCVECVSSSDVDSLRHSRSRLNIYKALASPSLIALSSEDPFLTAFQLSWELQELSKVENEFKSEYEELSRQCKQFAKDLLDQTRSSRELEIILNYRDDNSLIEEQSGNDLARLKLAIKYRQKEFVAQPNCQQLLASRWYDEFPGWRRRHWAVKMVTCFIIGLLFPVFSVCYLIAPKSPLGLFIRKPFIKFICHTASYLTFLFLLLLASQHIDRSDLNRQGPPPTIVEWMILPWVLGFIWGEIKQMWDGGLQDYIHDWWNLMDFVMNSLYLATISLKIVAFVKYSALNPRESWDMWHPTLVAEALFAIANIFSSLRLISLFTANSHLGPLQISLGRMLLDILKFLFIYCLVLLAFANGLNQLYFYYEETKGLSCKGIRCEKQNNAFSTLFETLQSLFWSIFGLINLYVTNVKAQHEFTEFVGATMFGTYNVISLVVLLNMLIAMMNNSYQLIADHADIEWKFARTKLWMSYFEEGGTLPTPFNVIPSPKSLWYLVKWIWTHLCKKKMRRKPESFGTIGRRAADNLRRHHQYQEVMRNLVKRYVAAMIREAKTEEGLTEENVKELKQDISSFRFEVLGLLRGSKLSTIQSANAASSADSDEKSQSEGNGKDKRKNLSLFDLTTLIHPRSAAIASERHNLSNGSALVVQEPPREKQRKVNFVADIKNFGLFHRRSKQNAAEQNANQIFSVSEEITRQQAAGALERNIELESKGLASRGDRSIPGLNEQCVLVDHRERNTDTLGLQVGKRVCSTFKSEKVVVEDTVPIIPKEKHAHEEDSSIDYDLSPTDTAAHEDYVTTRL
# [7] = target: T3, Ubiquitin-conjugating enzyme E2 N (Homo sapiens, UniProt P61088); type: functional
# T3 sequence (P61088 whole entry): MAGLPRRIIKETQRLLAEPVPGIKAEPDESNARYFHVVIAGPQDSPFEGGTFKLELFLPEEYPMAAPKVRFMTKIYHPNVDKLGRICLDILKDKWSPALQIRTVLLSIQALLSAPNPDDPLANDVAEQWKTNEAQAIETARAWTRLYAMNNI
# INS1 = experiment: INS-1E survival protection against cytokine death – cell-based, luminescence, retest, dose response (AID 449756); type: functional; settings: Rattus norvegicus;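 further: cell death triggered by IL-1 beta plus TNF-alpha plus IFN-gamma mixture; protective hits raise ATP signal compared with cytokine alone wells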
# [8] = target: 26S proteasome non-ATPase regulatory subunit 14 (Homo sapiens, UniProt O00487); experiment: inhibition of proteasome subunit RPN11 – biochemical, fluorescence polarization, uHTS hits, confirmation (AID 602368); type: functional
# Chain of 26S proteasome non-ATPase regulatory subunit 14 (O00487 whole entry): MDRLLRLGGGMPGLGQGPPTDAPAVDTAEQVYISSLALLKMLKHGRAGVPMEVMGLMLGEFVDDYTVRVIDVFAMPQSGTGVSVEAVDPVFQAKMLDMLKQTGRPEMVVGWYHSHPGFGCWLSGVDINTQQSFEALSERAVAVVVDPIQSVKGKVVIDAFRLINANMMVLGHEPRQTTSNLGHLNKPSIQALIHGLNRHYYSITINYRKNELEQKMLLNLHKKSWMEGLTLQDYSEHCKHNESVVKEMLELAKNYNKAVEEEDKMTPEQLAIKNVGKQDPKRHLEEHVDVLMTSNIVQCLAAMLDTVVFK
# Prothrombin = Prothrombin (Bos taurus, UniProt P00735); experiment: thrombin protease inhibitors – biochemical, fluorescence polarization, uHTS hits, dose response (AID 602369); type: functional
# [9] = target: T4, Rac GTPase-activating protein 1 (Homo sapiens, UniProt Q9H0H5); experiment: blockers of MgcRacGAP-driven Rac1 GTP hydrolysis – biochemical, ADP Hunter fluorescence, primary and confirmatory, confirmation (AID 624330); type: functional
# T4 sequence (Q9H0H5 whole entry): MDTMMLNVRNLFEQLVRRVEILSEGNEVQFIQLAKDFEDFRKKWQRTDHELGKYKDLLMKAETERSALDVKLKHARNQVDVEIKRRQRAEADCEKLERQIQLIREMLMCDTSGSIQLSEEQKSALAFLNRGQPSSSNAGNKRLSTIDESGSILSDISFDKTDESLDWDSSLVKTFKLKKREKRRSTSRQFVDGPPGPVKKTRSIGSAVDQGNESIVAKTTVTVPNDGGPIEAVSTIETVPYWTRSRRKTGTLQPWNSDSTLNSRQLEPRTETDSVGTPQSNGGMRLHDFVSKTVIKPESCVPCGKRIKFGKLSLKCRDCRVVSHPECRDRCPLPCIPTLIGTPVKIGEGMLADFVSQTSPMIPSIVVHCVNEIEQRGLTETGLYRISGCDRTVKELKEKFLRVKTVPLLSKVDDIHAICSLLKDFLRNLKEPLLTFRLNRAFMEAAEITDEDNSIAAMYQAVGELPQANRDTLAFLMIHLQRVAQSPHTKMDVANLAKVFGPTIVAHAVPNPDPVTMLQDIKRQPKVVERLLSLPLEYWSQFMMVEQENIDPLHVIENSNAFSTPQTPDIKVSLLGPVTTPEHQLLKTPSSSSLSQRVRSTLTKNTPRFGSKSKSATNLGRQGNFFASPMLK
# [10] = target: T5, DNA repair protein RAD52 homolog (Homo sapiens, UniProt P43351); type: functional, biochemical
# T5 sequence (P43351 whole entry): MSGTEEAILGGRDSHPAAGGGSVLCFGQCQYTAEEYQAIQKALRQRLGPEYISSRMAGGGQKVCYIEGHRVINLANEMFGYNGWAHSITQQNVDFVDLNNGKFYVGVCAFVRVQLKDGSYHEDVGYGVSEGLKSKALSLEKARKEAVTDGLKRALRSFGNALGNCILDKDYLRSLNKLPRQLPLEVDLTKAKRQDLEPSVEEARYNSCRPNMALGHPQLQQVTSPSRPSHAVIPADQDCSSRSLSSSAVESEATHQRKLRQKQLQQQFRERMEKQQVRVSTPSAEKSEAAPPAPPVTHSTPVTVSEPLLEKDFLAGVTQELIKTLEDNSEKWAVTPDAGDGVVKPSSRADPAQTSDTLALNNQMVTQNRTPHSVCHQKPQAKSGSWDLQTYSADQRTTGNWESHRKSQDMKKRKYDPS
smiles,measurement,setting,value
N=C(N)N/N=C/c1ccc(N(c2ccccc2)c2ccccc2)cc1,EC50,[1],18.5 µM (inconclusive)
same,EC50,[2],8.89 µM (active)
same,EC50,[3],10.4 µM (active)
same,EC50,[4],5.12 µM (active)
same,CC50,[5],6.42 µM (active)
same,IC50,Bcl-2-related protein A1,3.85 µM (active)
same,EC50,[6],9.44 µM (active)
same,IC50,[7],1.11 µM (active)
same,AC50,INS1,7.12 µM (active)
same,IC50,[8],18 µM (active)
same,IC50,Prothrombin,41.8 µM (active)
same,IC50,[9],60.7 µM (active)
same,AC50,[10],10.8 µM (active)
